Like-named read-outs stand apart in the source and are kept apart here.

The target in the assay is T1, mitochondrial calcium/sodium antiporter (Rattus norvegicus, UniProt Q6AXS0).
T1 sequence (Q6AXS0 1-585): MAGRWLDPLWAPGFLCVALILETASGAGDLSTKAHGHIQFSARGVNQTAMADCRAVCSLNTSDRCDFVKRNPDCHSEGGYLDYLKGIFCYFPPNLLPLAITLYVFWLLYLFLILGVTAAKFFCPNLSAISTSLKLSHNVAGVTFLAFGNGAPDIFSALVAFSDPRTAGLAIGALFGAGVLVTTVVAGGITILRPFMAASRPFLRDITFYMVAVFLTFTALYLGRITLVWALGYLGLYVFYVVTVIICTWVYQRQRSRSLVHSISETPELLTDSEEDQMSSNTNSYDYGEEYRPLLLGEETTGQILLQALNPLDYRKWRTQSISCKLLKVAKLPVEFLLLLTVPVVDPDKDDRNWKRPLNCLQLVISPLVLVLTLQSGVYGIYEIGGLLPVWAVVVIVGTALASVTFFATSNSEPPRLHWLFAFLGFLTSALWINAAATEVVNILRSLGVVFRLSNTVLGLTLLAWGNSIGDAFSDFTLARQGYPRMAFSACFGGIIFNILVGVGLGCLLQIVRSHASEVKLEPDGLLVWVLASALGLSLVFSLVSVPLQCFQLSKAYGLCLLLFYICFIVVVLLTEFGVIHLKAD
Kind of assay: Inhibition of mitochondrial calcium/sodium antiporter activity (NaCl-induced mitochondrial calcium efflux, calcium green 5N fluorescence). In kind it is cell-based. Conditions: digitonin-permeabilized INS-1 cells, 20 mM NaCl. As to the method:
INS-1 rat insulinoma cells (see Example 16) were harvested by trypsinization, washed and resuspended at 10×10^6 cells/ml in assay buffer (250 mM sucrose, 10 mM HEPES, 2.5 mM K2HPO4, 5 mM succinate, pH 7.4) containing 0.007% digitonin, 60 μM CaCl2 and 0.05 μM calcium green 5N (Molecular Probes, Inc., Eugene, Oreg.). After a five-minute calcium loading incubation, ruthenium red (1 μM; Sigma, St. Louis, Mo.) was added to block further calcium uptake by mitochondria. Cell suspensions were dispensed into 96-well plates (100 μl per well, 1×10^6 cells per well) and candidate agents (i.e., candidate mitochondrial calcium/sodium antiporter inhibitors) were added to some sets of triplicate wells at concentrations of 1, 10 or 100 μM, while other sets of wells provided appropriate control conditions (e.g., buffer and vehicle controls). Baseline fluorescence measurements were made using a multiwell plate fluorimeter (F-MAX™, Molecular Devices Corp., Sunnyvale, Calif.; or PolarStar™, BMG Labtechnologies, Inc., Durham, N.C.) according to the manufacturer's instructions. Calcium efflux from mitochondria was then induced by adding NaCl to all wells to achieve a final concentration of 20 mM, and the rate of change in fluorescence in each well was monitored […] for two minutes and quantified using software included with the plate reader.

The mark [1] stands for this setting: Table 2, preferred compounds, read-out: IC50 ≦ 10 μM.
The mark [2] stands for this setting: Table 3, more preferred compounds, read-out: IC50 ≦ 1 μM.

As to `Cc1ccc(C)c(C(SCc2nc(C)no2)c2cc(Cl)ccc2NC(=O)C(F)(F)F)c1` (stereo not shown) [Compound 14ma], the half-maximal inhibitory concentration (IC50) under setting [1] is not above 10000 nM. Same read-out and setting: to `Cc1noc(CSC(c2ccccc2)c2cc([N+](=O)[O-])ccc2N)n1` (stereo not shown) [Compound 14t] belongs not above 10000 nM. `CCSC(c1cc(Cl)ccc1N)c1ccccc1Cl` (stereo not shown) [Compound 15c]: the IC50 was not above 10000 nM under setting [1] and not above 1000 nM under setting [2].

Turning to `Nc1ccc(Cl)cc1C(SCCO)c1ccccc1Cl` (stereo not shown) [Compound 15d], the half-maximal inhibitory concentration (IC50) reads like this: under setting [1], not above 10000 nM; under setting [2], not above 1000 nM.

On to `COC(=O)CCSC(c1cc(Cl)ccc1N)c1ccccc1Cl` (stereo not shown) [Compound 15e], for which the IC50 reads like this: under setting [1], not above 10000 nM; under setting [2], not above 1000 nM.

As for `Nc1ccc(Cl)cc1C(Sc1ccccn1)c1ccccc1Cl` (stereo not shown) [Compound 15f], the half-inhibitory concentration (IC50) was not above 10000 nM under setting [1] and not above 1000 nM under setting [2]. The corresponding values for `Nc1ccc(Cl)cc1C(SCC(F)(F)F)c1ccccc1Cl` (stereo not shown) [Compound 15i] are not above 10000 nM and not above 1000 nM. The corresponding values for `Nc1ccc(Cl)cc1C(SCCCO)c1ccccc1Cl` (stereo not shown) [Compound 15k] are not above 10000 nM and not above 1000 nM.

Consider `Nc1ccc(Cl)cc1C(SCCNC(=O)c1ccccc1)c1ccccc1Cl` (stereo not shown) [Compound 16a], for which the 50% inhibitory concentration (IC50) is, setting by setting: under setting [1], not above 10000 nM; under setting [2], not above 1000 nM. Turning to `COc1ccc(C(=O)NCCSC(CC(C)C)c2cc(Cl)ccc2N)cc1OC` (stereo not shown) [Compound 16aa], the concentration for half-maximal inhibition (IC50) under setting [2] is not above 1000 nM. Still for that read-out and setting: to `COc1cc(C(=O)NCCSC(c2cc(Cl)ccc2N)C(C)C)cc(OC)c1OC` (stereo not shown) [Compound 16ab] belongs not above 1000 nM; to `COc1cc(C(=O)NCCSC(CC(C)C)c2cc(Cl)ccc2N)cc(OC)c1OC` (stereo not shown) [Compound 16ac], not above 1000 nM; to `COc1ccc(C(=O)NCCSC(c2cc(F)ccc2N)C2CCCCC2)cc1OC` (stereo not shown) [Compound 16ad], not above 1000 nM. Still for that read-out and setting: under `COc1ccc(C(=O)NCCSC(c2ccccc2N)C2CCCCC2)cc1OC` (stereo not shown) [Compound 16ae] stands not above 1000 nM.

As to `COc1ccc(CC(=O)NCCSC(c2cc(Cl)ccc2N)c2ccccc2Cl)cc1OC` (stereo not shown) [Compound 16b], the IC50 runs as follows: under setting [1], not above 10000 nM; under setting [2], not above 1000 nM. With `Nc1ccc(Cl)cc1C(SCCNC(=O)c1ccc(Cl)cc1Cl)c1ccccc1Cl` (stereo not shown) [Compound 16c], the half-inhibitory concentration (IC50) under setting [1] is not above 10000 nM.

`COc1ccc(C(=O)NCCSC(c2cc(Cl)ccc2N)c2ccccc2Cl)cc1OC` (stereo not shown) [Compound 16d]: the IC50 is not above 10000 nM under setting [1] and not above 1000 nM under setting [2]. Consider `Nc1ccc(Cl)cc1C(SCCNC(=O)c1cccc(Br)c1)c1ccccc1Cl` (stereo not shown) [Compound 16e], for which the 50% inhibitory concentration (IC50) runs as follows: under setting [1], not above 10000 nM; under setting [2], not above 1000 nM. The matching figures for `COC1CCC(C(=O)NCCSC(c2cc(Cl)ccc2N)c2ccccc2Cl)CC1` (stereo not shown) [Compound 16f]: not above 10000 nM and not above 1000 nM.

`Nc1ccc(Cl)cc1C(SCCNC(=O)c1ccc([N+](=O)[O-])cc1)c1ccccc1Cl` (stereo not shown) [Compound 16g]: the IC50 is not above 10000 nM under setting [1] and not above 1000 nM under setting [2]. The corresponding values for `Nc1ccc(Cl)cc1C(SCCNC(=O)C1CCC1)c1ccccc1Cl` (stereo not shown) [Compound 16h] are not above 10000 nM and not above 1000 nM. In the case of `Nc1ccc(Cl)cc1C(SCCNC(=O)C1CCCCC1)c1ccccc1Cl` (stereo not shown) [Compound 16i], the IC50 by setting is: under setting [1], not above 10000 nM; under setting [2], not above 1000 nM. The corresponding values for `CC(C)C(=O)NCCSC(c1cc(Cl)ccc1N)c1ccccc1Cl` (stereo not shown) [Compound 16j] are not above 10000 nM and not above 1000 nM. Take `Nc1ccc(Cl)cc1C(SCCNC(=O)c1cccnc1)c1ccccc1Cl` (stereo not shown) [Compound 16k]: the IC50 is not above 10000 nM under setting [1] and not above 1000 nM under setting [2]. The corresponding values for `Nc1ccc(Cl)cc1C(SCCNC(=O)COc1ccccc1)c1ccccc1Cl` (stereo not shown) [Compound 16l] are not above 10000 nM and not above 1000 nM. The matching figures for `Nc1ccc(Cl)cc1C(SCCNC(=O)c1ccccn1)c1ccccc1Cl` (stereo not shown) [Compound 16m]: not above 10000 nM and not above 1000 nM.

Take `COc1ccc(C(=O)NCCSC(c2cc(Cl)ccc2N)C2CCCCC2)cc1OC` (stereo not shown) [Compound 16n]: the 50% inhibitory concentration (IC50) under setting [2] was not above 1000 nM. As to `COc1cc(C(=O)NCCSC(c2cc(Cl)ccc2N)C2CCCCC2)cc(OC)c1O` (stereo not shown) [Compound 16p], the concentration for half-maximal inhibition (IC50) under setting [1] was not above 10000 nM. Take `COc1ccccc1C(=O)NCCSC(c1cc(Cl)ccc1N)C1CCCCC1` (stereo not shown) [Compound 16q]: the half-inhibitory concentration (IC50) under setting [2] is not above 1000 nM. For the compound `COc1cccc(C(=O)NCCSC(c2cc(Cl)ccc2N)C2CCCCC2)c1` (stereo not shown) [Compound 16r], the half-inhibitory concentration (IC50) under setting [2] is not above 1000 nM. Same read-out and setting: under `COc1ccc(C(=O)NCCSC(c2cc(Cl)ccc2N)C2CCCCC2)cc1` (stereo not shown) [Compound 16s] stands not above 1000 nM; under `Nc1ccc(Cl)cc1C(SCCNC(=O)c1cccnc1)C1CCCCC1` (stereo not shown) [Compound 16t], not above 1000 nM; under `Nc1ccc(Cl)cc1C(SCCNC(=O)c1ccncc1)C1CCCCC1` (stereo not shown) [Compound 16u], not above 1000 nM. As to `Nc1ccc(Cl)cc1C(SCCNC(=O)c1cn[nH]c1)C1CCCCC1` (stereo not shown) [Compound 16v], the IC50 under setting [1] was not above 10000 nM. As for `Nc1ccc(Cl)cc1C(SCCNC(=O)c1ccc2c(c1)OCO2)C1CCCCC1` (stereo not shown) [Compound 16w], the IC50 under setting [2] was not above 1000 nM. As to `CS(=O)(=O)c1ccc(C(=O)NCCSC(c2cc(Cl)ccc2N)C2CCCCC2)cc1` (stereo not shown) [Compound 16x], the half-inhibitory concentration (IC50) under setting [2] was not above 1000 nM. On to `Nc1ccc(Cl)cc1C(SCCNC(=O)c1ccc(S(N)(=O)=O)cc1)C1CCCCC1` (stereo not shown) [Compound 16y], for which, under setting [1], the half-maximal inhibitory concentration (IC50) was not above 10000 nM. Take `COc1ccc(C(=O)NCCSC(c2cc(Cl)ccc2N)C(C)C)cc1OC` (stereo not shown) [Compound 16z]: the IC50 under setting [2] is not above 1000 nM.

Regarding `Nc1ccc(Cl)cc1C(SCCNC(=O)Nc1cccc(F)c1)c1ccccc1Cl` (stereo not shown) [Compound 17a], the IC50 under setting [1] is not above 10000 nM. In the case of `Nc1ccc(Cl)cc1C(SCCNC(=O)Nc1ccccc1OC(F)(F)F)c1ccccc1Cl` (stereo not shown) [Compound 17b], the IC50 is not above 10000 nM under setting [1] and not above 1000 nM under setting [2]. In the case of `Nc1ccc(Cl)cc1C(SCCNC(=O)Nc1cc(F)ccc1F)c1ccccc1Cl` (stereo not shown) [Compound 17d], the concentration for half-maximal inhibition (IC50) under setting [1] was not above 10000 nM. Same read-out and setting: to `Nc1ccc(Cl)cc1C(SCCNC(=O)Nc1cccc(Cl)c1Cl)c1ccccc1Cl` (stereo not shown) [Compound 17e] belongs not above 10000 nM.

As to `COc1ccc(NC(=O)NCCSC(c2cc(Cl)ccc2N)c2ccccc2Cl)c(OC)c1` (stereo not shown) [Compound 17f], the concentration for half-maximal inhibition (IC50) runs as follows: under setting [1], not above 10000 nM; under setting [2], not above 1000 nM. Consider `COc1ccc(NC(=O)NCCSC(c2cc(Cl)ccc2N)C2CCCCC2)c(OC)c1` (stereo not shown) [Compound 17g], for which the 50% inhibitory concentration (IC50) under setting [2] is not above 1000 nM. Still for that read-out and setting: under `COc1cc(NC(=O)NCCSC(c2cc(Cl)ccc2N)C2CCCCC2)cc(OC)c1OC` (stereo not shown) [Compound 17h] stands not above 1000 nM; under `COc1cc(NC(=S)NCCSC(c2cc(Cl)ccc2N)C2CCCCC2)cc(OC)c1OC` (stereo not shown) [Compound 17i], not above 1000 nM. Still for that read-out and setting: to `COc1ccc(NC(=O)NCCSC(c2cc(Cl)ccc2N)C2CCCCC2)cc1OC` (stereo not shown) [Compound 17j] belongs not above 1000 nM; to `COc1ccc(NC(=S)NCCSC(c2cc(Cl)ccc2N)C2CCCCC2)c(OC)c1` (stereo not shown) [Compound 17k], not above 1000 nM. Turning to `Nc1ccc(Cl)cc1C(SCCNS(=O)(=O)c1ccccc1)c1ccccc1Cl` (stereo not shown) [Compound 18b], the half-maximal inhibitory concentration (IC50) under setting [1] was not above 10000 nM and the 50% inhibitory concentration (IC50) under setting [2] is not above 1000 nM. For `Nc1ccc(Cl)cc1C(SCCNS(=O)(=O)c1ccccc1[N+](=O)[O-])c1ccccc1Cl` (stereo not shown) [Compound 18c], the concentration for half-maximal inhibition (IC50) is not above 10000 nM under setting [1] and not above 1000 nM under setting [2]. In the case of `Nc1ccc(Cl)cc1C(SCCNS(=O)(=O)c1ccc(OC(F)(F)F)cc1)c1ccccc1Cl` (stereo not shown) [Compound 18d], the IC50 under setting [1] is not above 10000 nM. For the compound `CS(=O)(=O)NCCSC(c1cc(Cl)ccc1N)c1ccccc1Cl` (stereo not shown) [Compound 18e], the 50% inhibitory concentration (IC50) is, setting by setting: under setting [1], not above 10000 nM; under setting [2], not above 1000 nM. In the case of `COc1ccc(S(=O)(=O)NCCSC(c2cc(Cl)ccc2N)C2CCCCC2)cc1OC` (stereo not shown) [Compound 18f], the half-maximal inhibitory concentration (IC50) under setting [2] is not above 1000 nM. Still for that read-out and setting: to `COc1ccc(S(=O)(=O)NCCSC(c2cc(F)ccc2N)C2CCCCC2)cc1OC` (stereo not shown) [Compound 18g] belongs not above 1000 nM.

Consider `COC(=O)CSCC(c1cc(Cl)ccc1N)c1ccccc1Cl` (stereo not shown) [Compound 20a], for which the concentration for half-maximal inhibition (IC50) under setting [1] was not above 10000 nM.

Regarding `COC(=O)CSCC(c1cc(Cl)ccc1N)c1ccccc1F` (stereo not shown) [Compound 20b], the half-inhibitory concentration (IC50) under setting [1] is not above 10000 nM and the half-inhibitory concentration (IC50) under setting [2] is not above 1000 nM. The matching figures for `COC(=O)CSCC(c1cc(Br)ccc1N)c1ccccc1F` (stereo not shown) [Compound 20c]: not above 10000 nM and not above 1000 nM.

The values above are taken from patent US6958352B2, “Compounds for inhibiting insulin secretion and methods related thereto” (SmithKline Beecham Corporation, priority 2002, dated 2005).
